Tested on: Phospho-p44/42 MAP kinase (pErk2)
Test: Cell lysate array on evanescent field sensor platform, detection with antibody A3
Format: cell-based, human
Details: Jurkat cells, staurosporine 10 μM, 180 min
Procedure: Human T-cell cultures (Jurkat, DMZ # ACC282) are utilized for the detection of biologically relevant protein analytes in “nature-identical” samples. These cells are cultivated at 37° C. in a solution containing RPMI 1640, 10 % FCS (fetal calf serum), 2 mM glutamine, 50 U/ml penicillin, 50 μg/ml streptamycine (cell density at about 0.5−×10^6−1.0×10^6 cells/ml).
Then the cell cultures treated as described above and the untreated cell cultures, respectively, are cooled to 4° C. and formed to pellets by centrifugation at a centrifugal force of 350×g (number of cells at about 10^7).The cells here are simply separated from the medium, without damage to the cells. […]
The fluorescence signals from the various arrays of measurement areas undergo automatic sequential measurement using a ZeptoREADER™ (Zeptosens AG, Benkenstrasse 254, CH-4108 Witterswil). […] Then, for each array, images of the fluorescence signals from the corresponding array are generated, wherein the user can select different exposure times and the number of images to be generated. In the case of measurements for the present example, the excitation wavelength is 633 nm, and the detection of the fluorescence light at the fluorescence wavelength of Cy5 is performed using a cooled camera, an interference filter (transmission 670 nm ±20 nm) for suppression of scattered light being positioned in front of the lens of the camera. […]

CN[C@@H]1C[C@H]2O[C@@](C)([C@@H]1OC)n1c3ccccc3c3c4c(c5c6ccccc6n2c5c31)C(=O)NC4 [staurosporin, staurosporine]
pErk2 signal of the nonstimulated control sample compared with the sample treated with staurosporin: only slightly higher
